Consider 19 molecules from patent US9883675B2, “Method for controlling pests” (SUMITOMO CHEMICAL COMPANY, LIMITED, priority 2013, dated 2018).

The assay deals with Diamondback moth (Plutella xylostella). Briefly: Test Example 1: Japanese radish seed treatment, mortality of Diamondback moth larvae. The format is in vivo. To be noted: 48 h, Diamondback moth third instar larvae released 4 days after seeding, observed 2 days after release, average of two replications; for mortality at 0.01 mg: dose 0.01 mg/1 grain of seed; for mortality at 0.2 mg: dose 0.2 mg/1 grain of seed. As for the experimental part: Each of the present fused heterocyclic compounds 3, 4, 5, 9, 15, 16, 17, 18, 19, 20, 22, 25, 72, 74, 85, 130, 399, 409, 414, 419, 443, 444, 445, 464 and 467 was dissolved in acetone (available from Wako Pure Chemical Industries, Ltd.) containing 5% (W/V) SOLGEN TW-20 (available from Daiichi-Kogyo Seiyaku Co. Ltd.) so as to give a prescribed concentration, and to prepare the testing solution.
Nine (9) grains of the Japanese raddish (Raphanus sativas var. longipinnatus) were placed in a 2 ml volume polypropylene microtube (manufactured by As One Co.) and thereto was added 18 μl of the above testing solution and the seeds in the microtube were shaken and stirred on Stirrer (Trade name: VORTEX-GENIE2, manufactured by Scientific Industries, Inc.). After the testing solution was spread uniformly to the whole seed, the seeds were allowed to air dry.
To a 90 ml volume of plastic cup filled with ten (10) g of culture soil (Trade name: Aisai No. 1; available from Katakura Chikkarin Co., Ltd.) was added water (5 ml) and thereto was seeded three (3) grains of the above seeds.
At four days after the seeding, Diamondback moth (Plutella xylostella) at the third instar larval stages were released in a ratio of 10 (ten) heads of insects per the cup, and then the cups were covered with nylon gauze and covered with a lid (hereinafter, referred to as “treated group”).
On the other hand, Japanese raddish was seeded by the similar procedures to the treated group except that the present fused heterocyclic compound was not dissolved in acetone (available from Wako Pure Chemical Industries, Ltd.) containing 5% (W/V) SOLGEN TW-20 (available from Daiichi-Kogyo Seiyaku Co. Ltd.), and the larvae were released, and the cups were covered with a lid (hereinafter, referred to as “Untreated group”).
At two days after the release, the surviving and death of the larvae were observed and on basis of the results of the observation, the mortalities of both groups were calculated by the following equation 1), respectively. Two replication tests were performed on each group. The average value is shown below. Mortality (%)=(Total number of […])/Total number of Tested insects×100 Equation 1)

Broadly, the mortality is the share of the test organisms that died. With `CCS(=O)(=O)c1cccnc1-c1nc2cc(C(F)(F)F)cnc2n1C` [Present fused heterocyclic compound 3, 2-(3-ethylsulfonylpyridin-2-yl)-3-methyl-6-trifluoromethyl-3H-imidazo[4,5-b]pyridine], the mortality at 0.01 mg was determined as 100% and the mortality at 0.2 mg turned out to be 100%.
Regarding `CCSc1cc(C(F)(F)F)cnc1-c1nc2cc(C(F)(F)F)cnc2n1C` [Present fused heterocyclic compound 4, 2-(3-ethylsulfanyl-5-trifluoromethylpyridin-2-yl)-3-methyl-6-trifluoromethyl-3H-imidazo[4,5-b]pyridine], the mortality at 0.01 mg came to 100% and the mortality at 0.2 mg was 100%.
For `CCS(=O)(=O)c1cc(C(F)(F)F)cnc1-c1nc2cc(C(F)(F)F)cnc2n1C` [Present fused heterocyclic compound 5, 2-(3-ethylsulfonyl-5-trifluoromethylpyridin-2-yl)-3-methyl-6-trifluoromethyl-3H-imidazo[4,5-b]pyridine], the mortality at 0.01 mg was 100% and the mortality at 0.2 mg worked out at 100%.
Take `CCSc1cccnc1-c1nc2cc(I)cnc2n1C` [Present fused heterocyclic compound 9, 2-(3-ethylsulfanyl-pyridin-2-yl)-6-iodo-3-methyl-3H-imidazo[4,5-b]pyridine]: the mortality at 0.01 mg was 100% and the mortality at 0.2 mg was 100%.
Turning to `CCS(=O)(=O)c1cccnc1-c1nc2cc(SC(F)(F)F)cnc2n1C` [Present fused heterocyclic compound 15, 2-(3-ethylsulfonyl-pyridin-2-yl)-3-methyl-6-trifluoromethylsulfanyl-3H-imidazo[4,5-b]pyridine], the mortality at 0.01 mg came to 100% and the mortality at 0.2 mg came to 100%.
Take `CCS(=O)(=O)c1cccnc1-c1nc2cc(S(=O)(=O)C(F)(F)F)cnc2n1C` [Present fused heterocyclic compound 16, 2-(3-ethylsulfonyl-pyridin-2-yl)-3-methyl-6-trifluoromethylsulfonyl-3H-imidazo[4,5-b]pyridine]: the mortality at 0.01 mg worked out at 100% and the mortality at 0.2 mg came to 100%.
For the molecule `CCSc1cc(C(F)(F)F)cnc1-c1nc2cc(C(F)(F)C(F)(F)F)cnc2n1C` [Present fused heterocyclic compound 17, 2-(3-Ethylsulfanyl-5-trifluoromethyl-pyridin-2-yl)-3-methyl-6-pentafluoroethyl-3H-imidazo[4,5-b]pyridine], the mortality at 0.01 mg was determined as 100% and the mortality at 0.2 mg turned out to be 100%.
For `CC[S+]([O-])c1cc(C(F)(F)F)cnc1-c1nc2cc(C(F)(F)C(F)(F)F)cnc2n1C` (centres unmarked) [Present fused heterocyclic compound 18, 2-(3-Ethylsulfinyl-5-trifluoromethyl-pyridin-2-yl)-3-methyl-6-pentafluoroethyl-3H-imidazo[4,5-b]pyridine], the mortality at 0.01 mg worked out at 100% and the mortality at 0.2 mg was 100%.
For `CCS(=O)(=O)c1cc(C(F)(F)F)cnc1-c1nc2cc(C(F)(F)C(F)(F)F)cnc2n1C` [Present fused heterocyclic compound 19, 2-(3-ethylsulfonyl-5-trifluoromethyl-pyridin-2-yl)-3-methyl-6-pentafluoroethyl-3H-imidazo[4,5-b]pyridine], the mortality at 0.01 mg was 100% and the mortality at 0.2 mg worked out at 100%.
Regarding `CCS(=O)(=O)c1cccnc1-c1nc2cc([S+]([O-])C(F)(F)F)cnc2n1C` (centres unmarked) [Present fused heterocyclic compound 20, 2-(3-ethylsulfonyl-pyridin-2-yl)-3-methyl-6-trifluoromethylsulfinyl-3H-imidazo[4,5-b]pyridine], the mortality at 0.01 mg came to 100% and the mortality at 0.2 mg is 100%.
As to `CCS(=O)(=O)c1cccnc1-c1nc2cc(C(F)(F)F)c[n+]([O-])c2s1` [Present fused heterocyclic compound 22, 2-(3-ethylsulfonyl-2-yl)-6-(trifluoromethyl)thiazolo[5,4-b]pyridine 4-oxide], the mortality at 0.01 mg was determined as 100% and the mortality at 0.2 mg was 100%.
For the molecule `CCS(=O)(=O)c1cc(C(F)(F)F)cnc1-c1nc2cc(S(=O)(=O)C(F)(F)F)cnc2n1C` [Present fused heterocyclic compound 25, 2-(3-Ethylsulfonyl-5-trifluoromethyl-pyridin-2-yl)-3-methyl-6-trifluoromethylsulfonyl-3H-imidazo[4,5-b]pyridine], the mortality at 0.01 mg stood at 100% and the mortality at 0.2 mg came out at 100%.
As to `CCS(=O)(=O)c1cc(C(F)(F)C(F)(F)F)cnc1-c1nc2cc(C(F)(F)F)cnc2n1C` [Present fused heterocyclic compound 72, 2-(3-ethylsulfonyl-5-pentafluoroethylpyridin-2-yl)-3-methyl-6-trifluoromethyl-3H-imidazo[4,5-b]pyridine], the mortality at 0.01 mg was determined as 100% and the mortality at 0.2 mg came to 100%.
With `CCS(=O)(=O)c1cc(C(F)(F)C(F)(F)F)cnc1-c1nc2cc(C(F)(F)C(F)(F)F)cnc2n1C` [Present fused heterocyclic compound 74, 2-(3-ethylsulfonyl-5-pentafluoroethylpyridin-2-yl)-3-methyl-6-pentafluoroethyl-3H-imidazo[4,5-b]pyridine], the mortality at 0.01 mg stood at 100% and the mortality at 0.2 mg was found to be 100%.
Regarding `CCS(=O)(=O)c1cccnc1-c1nc2cc(C(F)(F)F)ccc2o1` [Present fused heterocyclic compound 85, 2-(3-Ethylsulfonylpyridin-2-yl)-5-trifluoromethyl-benzoxazole], the mortality at 0.01 mg was determined as 90% and the mortality at 0.2 mg worked out at 95%.
The corresponding values for `CCS(=O)(=O)c1cccnc1-c1nc2cc(C(F)(F)F)cc(C#N)c2n1C` [Present fused heterocyclic compound 130, 7-Cyano-2-(3-ethylsulfonylpyridin-2-yl)-1-methyl-5-trifluoromethyl-1H-benzimidazole] are 100% and 80%.
Take `CCS(=O)(=O)c1cc(C(F)(F)F)cnc1-c1nc2cc(C(F)(F)F)c(C#N)nc2n1C` [Present fused heterocyclic compound 399, 5-cyano-2-(3-ethylsulfonyl-5-trifluoromethylpyridin-2-yl)-3-methyl-6-trifluoromethyl-3H-imidazo[4,5-b]pyridine]: the mortality at 0.01 mg amounted to 90% and the mortality at 0.2 mg is 95%.
For `CCS(=O)(=O)c1cc(C(F)(F)F)cnc1-c1nc2cc(C(F)(F)C(F)(F)F)c[n+]([O-])c2n1C` [Present fused heterocyclic compound 409, 2-(3-ethylsulfonyl-5-trifluoromethyl-pyridin-2-yl)-3-methyl-6-pentafluoroethyl-3H-imidazo[4,5-b]pyridine 4-oxide], in that order: 100% and 100%.
For the molecule `CCS(=O)(=O)c1cc(C(OC)(OC)OC)cnc1-c1nc2cc(C(F)(F)C(F)(F)F)cnc2n1C` [Present fused heterocyclic compound 414, 2-(3-ethylsulfonyl-5-trimethoxymethyl-pyridin-2-yl)-3-methyl-6-pentafluoroethyl-3H-imidazo[4,5-b]pyridine], the mortality at 0.01 mg came to 95% and the mortality at 0.2 mg came to 100%.
